From patent publication US20240392241A1, “METHOD FOR PRODUCING CELL MASS INCLUDING PITUITARY TISSUE AND CELL MASS” (SUMITOMO CHEMICAL COMPANY, LIMITED, priority 2021, published 2024)

Assays:
[1] = tested on: human iPS cells (HC-6 #10 strain); assay: Pituitary organoid differentiation from human iPS cells, phase contrast observation of cell mass (Example 1); format: cell-based; details: JNK—IN-8 1 μM from day 0
Procedure: Human iPS cells (HC-6 #10 strain, obtained from RIKEN) were cultured under feeder-free conditions according to the method described in Scientific Reports, 4, 3594 (2014). As the feeder-free medium, StemFit medium (manufactured by Ajinomoto Co., Inc.) was used and, as the feeder-free scaffold, Laminin 511-E8 (manufactured by Nippi, Inc.) was used.
As specific maintenance culturing operation, subconfluent human iPS cells (HC-6 #10 strain) were first washed twice with 0.5 mM EDTA/PBS and further treated with 5 mM EDTA/PBS at 37° C. for 10 min. After pipetting, the cells were scraped from the surface of the culture dish and dispersed into single cells. Thereafter, the human iPS cells dispersed into single cells were seeded in a plastic culture dish coated with Laminin 511-E8, and cultured under feeder-free conditions in StemFit medium in the presence of Y-27632 (ROCK inhibiting substance, manufactured by FUJIFILM Wako Pure Chemical Corporation, 10 μM). When a 6-well plate (manufactured by Corning, for cell culturing, culture area 9.5 cm^2) was used as the plastic culture dish, the number of plated cells of the human iPS cells dispersed into single cells was adjusted to 7×10^3. One day after seeding, the entire amount of the medium was changed with StemFit medium free of Y-27632. Thereafter, once in 1-2 days, the entire amount of the medium was changed with StemFit medium free of Y-27632. […]

[2] = tested on: human iPS cells (1231A3 strain); assay: Timing of JNK inhibitor addition in pituitary organoid differentiation, bright field observation (Example 2); format: cell-based; details: observed day 28
Procedure: In Example 2, according to step shown in FIG. 2A, a cell population including cells that constitute pituitary tissue was produced. Specifically, human iPS cells (1231A3 strain, obtained from RIKEN) were cultured under feeder-free conditions according to the method described in Scientific Reports, 4, 3594 (2014). As the feeder-free medium, StemFit medium was used and, as the feeder-free scaffold, Laminin 511-E8 was used.
Differentiation induction was performed under the same conditions as in Example 1 except for the condition of adding a JNK inhibitor, compared to the conditions of Example 1. As the condition for adding JNK inhibitor, conditions including addition of JNK—IN-8 (manufactured by Merck, 1 μM), which is a c-Jun N-terminal kinase (JNK) inhibitor, on days 0, 2, 6, 10, and 13 after the start of differentiation induction were compared with conditions without addition of JNK inhibitor. When the JNK inhibitor is added on days 2, 6, 10, and 13 after the start of differentiation induction, 2 μM was added to the medium when adding or replacing the medium, so that the final concentration in the well would be 1 μM.
On day 28 after the start of suspension culture, bright field observation by polarized illumination was performed using an inverted microscope (manufactured by KEYENCE CORPORATION, BIOREVO BZ-X800) (FIG. 2B).

Cc1cc(NC(=O)c2cccc(NC(=O)/C=C/CN(C)C)c2)ccc1Nc1nccc(-c2cccnc2)n1 [JNK—IN-8, (E)-3-(4-(dimethylamino)but-2-enamido)-N-(3-methyl-4-((4-(pyridin-3-yl)pyrimidin-2-yl)amino)phenyl)benzamide]
differentiation efficiency (surface covered with nonneural epithelial/placode-like tissue, unintended cells suppressed) ([1]; day 28, vs no addition): improved
size of the cell mass, smaller in diameter than without addition of JNK inhibitor ([1]; day 28 of suspension culture): about 100 μm
formation of nonneural epithelium/pituitary vs no addition ([2]; JNK—IN-8 1 μM added on days 0, 2, and 6 after start of differentiation induction): formed more efficiently
formation of nonneural epithelium/pituitary vs no addition ([2]; JNK—IN-8 1 μM added on days 10 and 13 after start of differentiation): no difference
